# Results as given in article PMC6934184, “Selective DNA-PKcs inhibition extends the therapeutic index of localized radiotherapy and chemotherapy” (The Journal of Clinical Investigation, 2019).
# Target: T1, PIK3CD/PIK3R1 (p110δ/p85α) (Homo sapiens, UniProt O00329)
# T1 construct: purchased Thermo Fisher Scientific (Life Technologies) SelectScreen
# Assay: SelectScreen Adapta
# Format: biochemical
# Details: ATP Km app
# In short: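 NU5455 was profiled across the SelectScreen Broad panel of kinase activity and binding assays. Z'LYTE reactions such as CSF1R ran at apparent Km ATP, while the Adapta CAMK1 assay used ATP listed as 10. Values are given as percent.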
# T1 sequence (O00329 whole entry): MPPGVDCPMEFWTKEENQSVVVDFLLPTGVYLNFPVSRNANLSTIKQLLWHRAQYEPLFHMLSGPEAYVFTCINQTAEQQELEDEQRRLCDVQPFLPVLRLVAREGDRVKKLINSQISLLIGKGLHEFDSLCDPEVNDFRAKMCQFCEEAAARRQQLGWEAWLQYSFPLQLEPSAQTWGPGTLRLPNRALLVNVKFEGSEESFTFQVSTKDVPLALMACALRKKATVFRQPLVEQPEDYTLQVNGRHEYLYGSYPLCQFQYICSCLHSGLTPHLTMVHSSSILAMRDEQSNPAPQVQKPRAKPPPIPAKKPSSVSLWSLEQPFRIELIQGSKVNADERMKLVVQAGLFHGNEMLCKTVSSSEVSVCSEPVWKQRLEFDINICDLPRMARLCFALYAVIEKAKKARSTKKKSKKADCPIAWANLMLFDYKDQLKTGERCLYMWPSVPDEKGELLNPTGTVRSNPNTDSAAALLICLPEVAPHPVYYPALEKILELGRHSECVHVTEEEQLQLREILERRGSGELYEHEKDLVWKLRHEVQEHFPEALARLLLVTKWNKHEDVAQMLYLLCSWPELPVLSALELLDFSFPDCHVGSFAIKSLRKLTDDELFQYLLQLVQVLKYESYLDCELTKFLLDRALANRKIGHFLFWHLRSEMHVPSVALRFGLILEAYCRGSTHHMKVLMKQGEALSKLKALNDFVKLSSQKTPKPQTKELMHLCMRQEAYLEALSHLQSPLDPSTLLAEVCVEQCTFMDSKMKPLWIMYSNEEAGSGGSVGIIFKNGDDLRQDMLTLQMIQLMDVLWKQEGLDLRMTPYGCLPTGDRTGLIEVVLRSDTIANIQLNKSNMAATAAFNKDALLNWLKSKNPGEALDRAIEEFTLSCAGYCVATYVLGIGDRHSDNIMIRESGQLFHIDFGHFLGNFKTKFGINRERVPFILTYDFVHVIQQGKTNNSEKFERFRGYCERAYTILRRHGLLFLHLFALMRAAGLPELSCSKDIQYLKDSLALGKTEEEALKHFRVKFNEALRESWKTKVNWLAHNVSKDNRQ
# T1 sequence (P27986 whole entry partner): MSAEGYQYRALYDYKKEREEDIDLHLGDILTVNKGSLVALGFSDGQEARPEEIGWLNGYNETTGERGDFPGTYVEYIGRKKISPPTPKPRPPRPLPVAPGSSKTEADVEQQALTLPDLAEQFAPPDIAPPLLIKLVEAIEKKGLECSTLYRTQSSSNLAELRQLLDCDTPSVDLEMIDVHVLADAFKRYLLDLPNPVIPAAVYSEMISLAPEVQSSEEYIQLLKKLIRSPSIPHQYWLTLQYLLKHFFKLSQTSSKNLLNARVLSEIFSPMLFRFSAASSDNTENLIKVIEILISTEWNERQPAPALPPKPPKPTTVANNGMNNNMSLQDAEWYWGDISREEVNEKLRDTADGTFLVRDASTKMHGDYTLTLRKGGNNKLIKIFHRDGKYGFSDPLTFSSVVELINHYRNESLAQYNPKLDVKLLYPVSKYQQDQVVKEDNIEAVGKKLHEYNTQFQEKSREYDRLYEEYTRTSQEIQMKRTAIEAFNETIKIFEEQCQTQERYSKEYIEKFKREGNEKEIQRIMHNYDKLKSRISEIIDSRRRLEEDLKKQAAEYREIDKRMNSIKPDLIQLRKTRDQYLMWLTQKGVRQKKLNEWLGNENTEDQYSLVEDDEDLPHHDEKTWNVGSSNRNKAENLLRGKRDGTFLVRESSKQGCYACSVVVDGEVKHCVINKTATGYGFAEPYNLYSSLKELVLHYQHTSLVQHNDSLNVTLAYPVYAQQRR
compound,measurement,setting,value
CN(C(=O)CN1CCOCC1)c1ccc2sc3c(-c4cccc5c(=O)cc(N6CC7CCC(C6)O7)oc45)cccc3c2c1 [NU5455],% inhibition,1 µM,57%
same,inhibition at 1 µM,,57.5%
